Results on one molecule are retold here after patent US11382907B2, “Methods and compositions for treating aging-associated impairments using CCR3-inhibitors” (Alkahest, Inc., priority 2017, dated 2022).

Data set [1] has as its system doublecortin-positive cells in the hippocampus. Nature of the data set: Histology: doublecortin (DCX) positive cells in hippocampus of aged mice. Type of data set: in vivo, C57Bl/6 mice. Particulars: 18-month-old mice; four-week subcutaneous dosing by pump, versus IgG control. An excerpt: Mice were taken down on the day following the end of behavior testing. Anesthesia was induced by 2,2,2-tribromoethanol and mice were subsequently perfused with 0.9% saline trans-cardially. The brains were dissected and cut sagitally in two even halves. One half was snap frozen for later use in dry ice, and the other was fixed in 4% paraformaldehyde in PBS for use in immunohistochemistry. After two days of fixation, the hemibrains were transferred to a 30% sucrose in PBS solution and changed after two days. Hemibrains were sectioned at 30 um on a microtome at −22° C. Brain sections were stored in cryoprotectant media at −20° C. until needed for staining. Blocking was done on free floating sections in the appropriate serum at 10% serum in PBST 0.5%. Primary antibodies were incubated overnight at 4 C. For light microscopy, the following antibodies were used in the given concentrations: DCX, 1:200, Santa Cruz BioTech, CD68, 1:1000. AbD Serotec. Secondary biotinylated antibodies were applied the next day at a concentration of 1:300. Staining visualization was achieved by reaction with the ABC kit (Vector) and diaminobenzidine (Sigma). Dehydration of the mounted slides was achieved using ethanol and xylene dips. Images were acquired on a Leica light microscope at 5× magnification. […]

A further data set has as its system Iba1-positive microglia. Nature of the data set: IHC of Iba1-positive microglia in hippocampus of mice given daily LPS. Conditions: 3-month-old mice, daily LPS IP 7 weeks, 30 mg/kg PO BID 4 weeks. Type of data set: in vivo, C57Bl/6 mice. The protocol: (§1) For fluorescent microscopy, the following antibodies were used in the given concentrations: GFAP, 1:500, DAKO; Iba1, 1:1000, Wako; and BrdU, 1:500, AbCam. Antigen retrieval protocol was required for BrdU (2N HCl, 37 C, 30 min) prior to blocking. The appropriate fluorescent secondary antibodies were applied the next day at a concentration of 1:300 for one hour at room temperature. Prolong Gold Mounting Media was used to coverslip the slides. Images were acquired on a light microscope at 5× magnification.
Three-month-old C57 mice were given daily doses of lipopolysaccharide (LPS) 0.5 mg/kg IP to induce inflammation and treated with Compound 1 for up to 4 weeks.
Treatment Groups: • Treatment Group 1, Vehicle treatment: 3-month-old C57 mice (n=10) received daily IP injection of LPS for 7 weeks and twice daily (BID) oral gavage (PO) treatment of vehicle solution for up to 4 weeks. • Treatment Group 2, Vehicle treatment and Oxazolone treatment: 3-month-old C57 mice (n=10) received daily IP injection of LPS for 7 weeks and twice daily (BID) oral gavage (PO) treatment of vehicle solution for up to 4 weeks. • Treatment Group 3, Compound 1 treatment and Oxazolone treatment: 3-month-old C57 mice (n=9) received daily IP injection of LPS for 7 weeks and twice daily (BID) oral gavage (PO) treatment of Compound 1, 30 mg/kg, for up to 4 weeks.

A short description of data set [2]: Compound cerebrospinal fluid levels in mice (mass spectroscopy). Type of data set: in vivo, C57BL/6 mice. Particulars: for concentration at 4 weeks: C57BL/6, mouse, cerebrospinal fluid, subcutaneous, 16.5-month-old old group, read-out: level of Compound 1 in CSF. How it is done: Compound levels were measured by MS/MS by Quintara (Hayward, Calif.).
Cerebrospinal fluid (CSF) from both the 2-month-old “young” and 16.5-month-old “old” groups was collected and levels of Compound 1 were determined by mass spectroscopy. FIG. 6 depicts the levels of the compound of the invention that were detected in mouse CSF for both the young and old groups (both below 10 nM).

The test system of data set [3] is BrdU-positive cells in the hippocampus. Nature of the data set: Histology: BrdU positive cells in hippocampus of aged mice. Type of data set: in vivo, C57Bl/6 mice. How it is done:
as §1
Two-month-old or 18-month-old C57Bl/6 mice were dosed with either IgG antibody control by IP injection or Compound 1 subcutaneously by Alzet osmotic pump for either 2 or 4 weeks. During the last week of treatment, mice were subjected to behavior testing prior to perfusion on the last day of treatment. All mice received 5 consecutive days of BrdU injection at 150 mg/kg IP immediately prior to treatment start. […]

Entries after “also recorded” stand apart in the source; their conditions may differ. Where two headings read alike, the source gives them in different places. Some results are limits rather than exact numbers.

For `Cc1cc(C(=O)N(C)C)cc(NC(=O)[C@H]2CCC(=O)N2C2CCN(Cc3ccc(Cl)c(C)c3)CC2)n1` [Compound 1], in data set [1], the “doublecortin-positive cells in the hippocampus” value is “increased the numbers of doublecortin-positive cells”. Besides, the “Iba1+ immunoreactivity (total microglia) in hippocampus” value with Iba1-positive microglia is “dramatically decreased Iba1+ immunoreactivity; also recorded: trend towards decrease”. For the same molecule, the concentration at 4 weeks in data set [2] (50 mg/mL solution infused at 0.5 μL/hour by Alzet mini-pump, mass spectroscopy) is less than 10 nM; in data set [2] (mass spectroscopy), less than 10 nM. Besides, the “difference in BBB penetration between young and old mice” value in data set [2] (mouse, in vivo) was “no difference in BBB penetration between young and old mice”. Also, the “crossing of the blood-brain barrier (CSF levels versus Ki)” value in data set [2] (young and old mice) is reported as “do not cross the blood-brain barrier (BBB) in significant concentrations”. For the same molecule, in data set [2] (young group, mass spectroscopy), the “level of Compound 1 in CSF” value is reported as “below 10 nM”. Moreover, the “BrdU-positive cells in the hippocampus” value in data set [3] (16.5-month-old mice, four-week dosing by pump) is recorded as “significantly increased the number of BrdU-positive cells”; in data set [3] (18-month-old mice, higher dosing for 2 weeks by pump), “trend in increased BrdU-positive cells”.
